ChEMBL document CHEMBL5653631, “A Potent and Selective ULK1 Inhibitor Suppresses Autophagy and Sensitizes Cancer Cells to Nutrient Stress” (iScience, 2018)

Columns and labels:
[1] = target: Ephrin type-A receptor 2 (Homo sapiens) (UniProt P29317); experiment: Inhibition of human recombinant EphA2 at 40 nM in presence of ATP by radiometric assay relative to control
[2] = target: T1, Testis-specific serine/threonine-protein kinase 2 (Homo sapiens) (UniProt Q96PF2); experiment: Inhibition of human recombinant TSSK2 at 40 nM related to control ULK1
T1 sequence (whole entry): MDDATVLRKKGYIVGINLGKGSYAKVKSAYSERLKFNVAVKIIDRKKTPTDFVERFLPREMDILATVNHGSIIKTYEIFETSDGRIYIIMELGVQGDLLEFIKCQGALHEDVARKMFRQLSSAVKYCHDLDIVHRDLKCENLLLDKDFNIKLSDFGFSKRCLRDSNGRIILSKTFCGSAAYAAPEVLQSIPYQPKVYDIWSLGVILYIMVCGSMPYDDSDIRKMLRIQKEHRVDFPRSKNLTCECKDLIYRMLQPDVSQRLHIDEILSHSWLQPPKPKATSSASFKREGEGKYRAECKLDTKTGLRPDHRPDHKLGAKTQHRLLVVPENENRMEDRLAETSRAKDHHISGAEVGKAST

[3] = target: Fibroblast growth factor receptor 1 (Homo sapiens) (UniProt P11362); experiment: Inhibition of human recombinant FGFR1 at 40 nM in presence of ATP by radiometric assay relative to control
[4] = target: Serine/threonine-protein kinase PAK 4 (Homo sapiens) (UniProt O96013); experiment: Inhibition of human recombinant PAK4 at 15 nM in presence of ATP by radiometric assay relative to control
[5] = target: PAS domain-containing serine/threonine-protein kinase (Homo sapiens) (UniProt Q96RG2); experiment: Inhibition of human recombinant PASK at 15 nM related to control ULK1
[6] = target: T2, Eukaryotic elongation factor 2 kinase (Homo sapiens) (UniProt O00418); experiment: Inhibition of human recombinant eEF2K at 15 nM related to control ULK1
T2 sequence (whole entry): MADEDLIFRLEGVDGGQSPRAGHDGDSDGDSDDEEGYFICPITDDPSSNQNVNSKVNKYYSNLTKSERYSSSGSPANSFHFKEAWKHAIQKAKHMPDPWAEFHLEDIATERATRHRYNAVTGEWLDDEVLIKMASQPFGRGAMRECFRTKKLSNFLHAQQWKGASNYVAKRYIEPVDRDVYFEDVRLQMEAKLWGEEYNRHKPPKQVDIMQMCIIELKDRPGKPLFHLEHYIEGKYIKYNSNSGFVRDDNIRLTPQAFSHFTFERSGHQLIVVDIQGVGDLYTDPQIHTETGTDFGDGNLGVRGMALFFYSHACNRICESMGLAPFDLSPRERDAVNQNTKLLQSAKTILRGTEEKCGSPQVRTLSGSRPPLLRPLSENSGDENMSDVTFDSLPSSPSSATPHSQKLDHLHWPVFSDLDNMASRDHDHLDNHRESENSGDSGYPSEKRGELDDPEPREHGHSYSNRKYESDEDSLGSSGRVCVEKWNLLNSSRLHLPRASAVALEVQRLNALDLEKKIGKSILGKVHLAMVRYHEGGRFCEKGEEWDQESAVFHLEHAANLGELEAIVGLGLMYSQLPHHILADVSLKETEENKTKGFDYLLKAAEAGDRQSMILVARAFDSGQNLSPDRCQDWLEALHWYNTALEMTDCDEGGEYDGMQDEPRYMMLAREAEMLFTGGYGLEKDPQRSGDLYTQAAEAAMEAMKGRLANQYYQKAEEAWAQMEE

[7] = target: T3, Serine/threonine-protein kinase ULK2 (Homo sapiens) (UniProt Q8IYT8); experiment: Inhibition of human recombinant ULK2 at 500 nM related to control ULK1
T3 sequence (whole entry): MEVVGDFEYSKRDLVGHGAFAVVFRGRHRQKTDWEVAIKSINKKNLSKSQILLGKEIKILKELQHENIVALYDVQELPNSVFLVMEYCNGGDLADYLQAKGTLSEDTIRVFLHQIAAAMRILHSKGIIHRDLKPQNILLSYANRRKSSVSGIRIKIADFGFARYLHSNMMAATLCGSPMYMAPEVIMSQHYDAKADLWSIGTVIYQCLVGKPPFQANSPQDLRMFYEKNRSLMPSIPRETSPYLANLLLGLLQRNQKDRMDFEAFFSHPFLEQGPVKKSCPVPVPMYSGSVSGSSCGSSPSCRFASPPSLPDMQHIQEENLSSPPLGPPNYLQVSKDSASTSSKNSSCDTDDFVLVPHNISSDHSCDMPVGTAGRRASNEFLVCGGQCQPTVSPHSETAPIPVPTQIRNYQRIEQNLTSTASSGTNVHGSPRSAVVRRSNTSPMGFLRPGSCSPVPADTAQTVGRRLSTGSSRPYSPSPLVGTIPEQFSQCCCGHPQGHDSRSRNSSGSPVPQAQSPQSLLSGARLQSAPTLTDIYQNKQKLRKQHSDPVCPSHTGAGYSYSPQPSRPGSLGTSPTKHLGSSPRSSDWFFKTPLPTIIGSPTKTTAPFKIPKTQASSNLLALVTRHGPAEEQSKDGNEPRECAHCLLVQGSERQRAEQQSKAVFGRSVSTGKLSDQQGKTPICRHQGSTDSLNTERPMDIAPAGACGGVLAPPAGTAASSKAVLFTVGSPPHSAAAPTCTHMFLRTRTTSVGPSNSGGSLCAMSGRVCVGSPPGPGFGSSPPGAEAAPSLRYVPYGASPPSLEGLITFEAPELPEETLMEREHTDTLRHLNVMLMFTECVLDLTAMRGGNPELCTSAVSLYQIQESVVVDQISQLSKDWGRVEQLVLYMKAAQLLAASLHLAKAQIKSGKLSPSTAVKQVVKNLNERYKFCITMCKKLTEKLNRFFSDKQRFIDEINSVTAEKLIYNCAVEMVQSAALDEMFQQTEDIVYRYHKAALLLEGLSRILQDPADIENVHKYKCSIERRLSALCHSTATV

[8] = target: Proto-oncogene tyrosine-protein kinase ROS (Homo sapiens) (UniProt P08922); experiment: Inhibition of human recombinant ROS at 500 nM in presence of ATP by radiometric assay relative to control
Sequence of Proto-oncogene tyrosine-protein kinase ROS (Homo sapiens) (P08922 whole entry): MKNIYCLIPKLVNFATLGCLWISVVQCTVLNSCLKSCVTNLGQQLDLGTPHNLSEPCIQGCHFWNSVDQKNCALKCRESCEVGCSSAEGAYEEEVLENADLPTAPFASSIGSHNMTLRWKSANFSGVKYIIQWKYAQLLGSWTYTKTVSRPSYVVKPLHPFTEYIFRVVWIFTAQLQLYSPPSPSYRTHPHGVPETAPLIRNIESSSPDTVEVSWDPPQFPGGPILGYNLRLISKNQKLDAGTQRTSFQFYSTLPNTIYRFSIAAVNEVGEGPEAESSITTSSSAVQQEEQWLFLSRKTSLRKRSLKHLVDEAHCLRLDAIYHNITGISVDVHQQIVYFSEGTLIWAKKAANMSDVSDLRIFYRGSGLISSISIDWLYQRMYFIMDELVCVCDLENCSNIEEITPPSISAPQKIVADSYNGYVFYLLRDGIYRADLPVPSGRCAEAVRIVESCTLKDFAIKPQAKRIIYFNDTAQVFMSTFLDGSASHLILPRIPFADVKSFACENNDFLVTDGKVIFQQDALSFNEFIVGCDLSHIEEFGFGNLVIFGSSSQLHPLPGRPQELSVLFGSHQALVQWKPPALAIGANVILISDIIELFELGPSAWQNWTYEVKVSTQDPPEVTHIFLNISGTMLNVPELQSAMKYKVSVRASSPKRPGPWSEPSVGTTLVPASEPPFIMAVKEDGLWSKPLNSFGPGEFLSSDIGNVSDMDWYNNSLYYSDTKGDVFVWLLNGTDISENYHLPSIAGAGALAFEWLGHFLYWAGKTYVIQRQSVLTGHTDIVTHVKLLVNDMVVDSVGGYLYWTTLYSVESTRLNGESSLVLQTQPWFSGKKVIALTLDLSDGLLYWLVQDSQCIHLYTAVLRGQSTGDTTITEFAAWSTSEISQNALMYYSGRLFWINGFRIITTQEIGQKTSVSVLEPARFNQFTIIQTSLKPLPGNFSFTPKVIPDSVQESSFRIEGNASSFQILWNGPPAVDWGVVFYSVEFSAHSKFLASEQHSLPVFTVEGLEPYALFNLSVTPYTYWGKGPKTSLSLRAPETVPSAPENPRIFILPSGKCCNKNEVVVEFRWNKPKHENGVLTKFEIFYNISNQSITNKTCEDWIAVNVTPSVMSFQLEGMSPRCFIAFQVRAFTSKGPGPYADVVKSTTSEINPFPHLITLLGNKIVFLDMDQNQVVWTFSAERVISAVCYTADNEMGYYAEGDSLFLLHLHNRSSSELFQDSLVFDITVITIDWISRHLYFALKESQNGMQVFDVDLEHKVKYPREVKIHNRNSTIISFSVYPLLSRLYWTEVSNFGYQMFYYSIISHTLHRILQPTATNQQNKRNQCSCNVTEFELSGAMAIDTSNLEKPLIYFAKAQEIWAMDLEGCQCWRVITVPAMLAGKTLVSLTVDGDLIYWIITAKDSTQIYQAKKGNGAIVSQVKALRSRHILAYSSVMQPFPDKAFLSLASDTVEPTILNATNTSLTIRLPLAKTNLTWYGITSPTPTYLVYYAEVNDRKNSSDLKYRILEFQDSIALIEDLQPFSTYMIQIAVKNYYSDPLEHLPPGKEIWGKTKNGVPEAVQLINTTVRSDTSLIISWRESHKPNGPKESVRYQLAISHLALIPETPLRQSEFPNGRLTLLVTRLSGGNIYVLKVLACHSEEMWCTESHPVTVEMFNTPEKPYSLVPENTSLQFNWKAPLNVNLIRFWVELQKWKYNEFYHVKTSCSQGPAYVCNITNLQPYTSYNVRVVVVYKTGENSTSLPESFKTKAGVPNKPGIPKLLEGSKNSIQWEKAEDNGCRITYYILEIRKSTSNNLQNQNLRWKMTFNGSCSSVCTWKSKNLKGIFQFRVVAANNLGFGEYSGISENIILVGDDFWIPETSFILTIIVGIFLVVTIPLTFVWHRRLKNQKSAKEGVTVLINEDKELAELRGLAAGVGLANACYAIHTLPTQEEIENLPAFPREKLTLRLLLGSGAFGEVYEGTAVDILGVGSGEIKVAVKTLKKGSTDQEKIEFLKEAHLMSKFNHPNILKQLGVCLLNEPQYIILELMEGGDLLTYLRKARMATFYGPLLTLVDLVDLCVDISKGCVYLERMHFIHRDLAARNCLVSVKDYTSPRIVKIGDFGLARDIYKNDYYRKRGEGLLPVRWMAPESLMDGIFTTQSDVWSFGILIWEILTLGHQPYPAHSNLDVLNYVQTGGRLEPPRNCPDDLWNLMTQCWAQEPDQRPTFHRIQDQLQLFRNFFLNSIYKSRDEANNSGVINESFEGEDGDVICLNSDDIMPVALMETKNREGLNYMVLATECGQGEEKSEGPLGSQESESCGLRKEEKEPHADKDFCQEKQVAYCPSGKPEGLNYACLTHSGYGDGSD

Sequence of Fibroblast growth factor receptor 1 (Homo sapiens) (P11362 22-822 limits assumed): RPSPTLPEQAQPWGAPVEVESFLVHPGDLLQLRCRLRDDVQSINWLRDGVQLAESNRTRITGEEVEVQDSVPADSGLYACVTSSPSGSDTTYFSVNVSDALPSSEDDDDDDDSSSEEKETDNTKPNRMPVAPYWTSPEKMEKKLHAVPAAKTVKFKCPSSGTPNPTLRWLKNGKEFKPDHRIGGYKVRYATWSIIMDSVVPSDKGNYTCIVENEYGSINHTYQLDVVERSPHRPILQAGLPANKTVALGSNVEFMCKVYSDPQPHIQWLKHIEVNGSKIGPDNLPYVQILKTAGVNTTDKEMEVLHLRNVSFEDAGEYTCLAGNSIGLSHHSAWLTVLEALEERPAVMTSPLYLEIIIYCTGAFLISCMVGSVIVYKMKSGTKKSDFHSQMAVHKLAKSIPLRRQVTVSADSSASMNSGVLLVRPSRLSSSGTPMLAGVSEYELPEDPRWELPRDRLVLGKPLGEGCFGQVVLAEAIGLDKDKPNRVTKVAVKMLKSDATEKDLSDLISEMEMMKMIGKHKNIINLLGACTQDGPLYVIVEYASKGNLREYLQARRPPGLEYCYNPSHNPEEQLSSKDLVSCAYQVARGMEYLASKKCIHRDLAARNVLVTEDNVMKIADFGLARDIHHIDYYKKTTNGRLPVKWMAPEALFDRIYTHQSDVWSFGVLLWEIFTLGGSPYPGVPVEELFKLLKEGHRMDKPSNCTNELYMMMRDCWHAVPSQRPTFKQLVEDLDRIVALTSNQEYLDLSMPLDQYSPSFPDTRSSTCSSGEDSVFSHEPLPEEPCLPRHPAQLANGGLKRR
Sequence of Ephrin type-A receptor 2 (Homo sapiens) (P29317 whole entry): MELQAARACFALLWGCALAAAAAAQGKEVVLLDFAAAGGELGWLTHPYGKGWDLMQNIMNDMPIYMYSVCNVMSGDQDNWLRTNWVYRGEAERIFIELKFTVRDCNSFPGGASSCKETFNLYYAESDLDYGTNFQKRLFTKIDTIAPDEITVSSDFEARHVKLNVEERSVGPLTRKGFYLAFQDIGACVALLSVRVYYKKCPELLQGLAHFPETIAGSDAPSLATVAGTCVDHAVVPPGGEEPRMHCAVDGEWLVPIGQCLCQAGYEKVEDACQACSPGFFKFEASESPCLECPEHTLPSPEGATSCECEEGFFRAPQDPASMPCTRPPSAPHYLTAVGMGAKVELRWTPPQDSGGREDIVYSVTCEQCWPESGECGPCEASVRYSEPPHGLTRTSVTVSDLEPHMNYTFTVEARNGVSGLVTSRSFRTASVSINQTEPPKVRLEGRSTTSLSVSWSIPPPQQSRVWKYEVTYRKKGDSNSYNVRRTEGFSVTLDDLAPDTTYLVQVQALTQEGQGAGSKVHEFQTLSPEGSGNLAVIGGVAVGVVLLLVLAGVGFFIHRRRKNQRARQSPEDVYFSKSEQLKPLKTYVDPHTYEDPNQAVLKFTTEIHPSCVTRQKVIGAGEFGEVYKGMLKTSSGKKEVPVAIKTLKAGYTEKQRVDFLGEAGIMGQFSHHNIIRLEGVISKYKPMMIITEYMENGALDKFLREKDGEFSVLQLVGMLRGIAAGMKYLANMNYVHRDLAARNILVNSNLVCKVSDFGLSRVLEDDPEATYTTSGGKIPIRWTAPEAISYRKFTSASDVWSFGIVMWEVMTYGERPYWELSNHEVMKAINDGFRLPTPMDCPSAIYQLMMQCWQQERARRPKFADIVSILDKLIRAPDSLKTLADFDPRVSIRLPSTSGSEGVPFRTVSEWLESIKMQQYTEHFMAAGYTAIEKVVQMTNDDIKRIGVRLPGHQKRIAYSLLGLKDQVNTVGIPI
Sequence of Serine/threonine-protein kinase PAK 4 (Homo sapiens) (O96013 whole entry, looked up, the tested form may be a part): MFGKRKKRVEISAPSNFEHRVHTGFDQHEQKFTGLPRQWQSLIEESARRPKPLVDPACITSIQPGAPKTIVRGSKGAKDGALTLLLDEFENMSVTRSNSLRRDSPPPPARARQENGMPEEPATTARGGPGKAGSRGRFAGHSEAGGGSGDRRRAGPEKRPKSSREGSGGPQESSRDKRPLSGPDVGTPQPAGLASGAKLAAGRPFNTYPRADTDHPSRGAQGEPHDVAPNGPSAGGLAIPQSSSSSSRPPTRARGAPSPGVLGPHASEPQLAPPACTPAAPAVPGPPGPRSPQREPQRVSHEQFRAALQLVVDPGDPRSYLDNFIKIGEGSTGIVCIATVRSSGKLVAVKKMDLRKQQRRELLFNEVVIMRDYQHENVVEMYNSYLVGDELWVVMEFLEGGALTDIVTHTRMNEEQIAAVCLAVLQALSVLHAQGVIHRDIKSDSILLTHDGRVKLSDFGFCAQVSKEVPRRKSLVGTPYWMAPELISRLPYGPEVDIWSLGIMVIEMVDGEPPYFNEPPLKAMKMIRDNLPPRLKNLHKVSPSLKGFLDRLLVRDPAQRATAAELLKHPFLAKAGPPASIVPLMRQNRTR

O=C(N[C@@H](C1CC1)C(F)(F)F)c1cc(-c2cnn3cc(-c4ccc(F)cc4)cnc23)cs1
inhibition [1]: 2%
fold change (FC) [2]: 0
inhibition [3]: 0%

CC(C)[C@H](NC(=O)c1cc(-c2cnn3cc(-c4ccc(OCCN5CCCCC5)cc4)cnc23)cs1)C(F)(F)F
inhibition [4]: 0%
fold change (FC) [5]: 0
fold change (FC) [6]: 0.11

CNC(=O)c1ccccc1Oc1nc(Nc2cc(OC)c(OC)c(OC)c2)ncc1Br
fold change (FC) [7]: 0.65
inhibition [8]: 0%
